In experiment [1] the test system is atrial natriuretic factor (ANF). Kind of experiment: Transcription of atrial natriuretic factor by RT-PCR in neonatal cardiomyocytes. It counts as cell-based, rat. To be noted: 72 hr stimulation. As to the method:
RNA was prepared using Trizol reagent (Invitrogen) from neonatal rat ventricular cardiomyocytes after 72 hr of stimulation. Complementary DNA was synthesized from 2 μg RNA with the SuperScriptIII kit (Invitrogen) using oligo-dT primers. One μL cDNA was used as template for 20 μL PCR-reactions (95° C. for 2 min, 30 cycles of 95° C. for 2 min, 55° C. for 2 min, 72° C. for 5 min, followed by 72° C. for 10 min). Oligonucleotide primers used for detection of ANF were F: 5′-[…]-3′ (Seq ID No. 2), R: 5′-[…]-3′ (Seq ID No. 3), β-actin were F: 5′-[…]-3′ (Seq ID No. 4), R: 5′-[…]-3′ (Seq ID No. 5), […] were F: 5′-[…]-3′ (Seq ID No. 6), R: 5′-[…]-3′ (Seq ID No. 7); SMA were F: 5′-[…]-3′ (Seq ID No. 8), R: 5′-[…]-3′ (Seq ID No. 9); SERCA2 were F: 5′-[…]-3′ (Seq ID No. 10), R: 5′-[…]-3′ (Seq ID No. 11), and for GAPDH: 5′-[…]-3′ (Seq ID No. 12), R: 5′-[…]-3′ (Seq ID No. 13).

The subject of experiment [2] is adult ventricular cardiomyocytes. Kind of experiment: Transcription of fetal gene program (RT-PCR) in adult ventricular cardiomyocytes. It counts as cell-based, rat.
Experiment [3] deals with differentiated cardiomyocytes. Briefly: Hypertrophy by [3H]leucine uptake. It counts as cell-based, rat. The note with it: phenylephrine 10 mM [sic]; all time points tested. An excerpt: Induction of the fetal gene program is accompanied by increased protein synthesis leading to cardiomyocyte hypertrophy. We assessed cardiomyocyte hypertrophy by measuring uptake of [^3H]leucine.

In experiment [4] the test system is primary neonatal rat ventricular cardiomyocytes. Briefly: DNA synthesis, mitosis and cytokinesis in primary neonatal rat ventricular cardiomyocytes. Format: cell-based. To be noted: periostin plus FGF. An excerpt:
(§1) Primary neonatal rat ventricular cardiomyocytes were isolated using the Neomyts kit (Cellutron, Highland Park, N.J.), seeded at a density of 10^5 cells/cm^2 onto gelatin-coated cover slips, stimulated for 3 days, and labeled with BrdU for the terminal 2 days. Primary adult ventricular cardiomyocytes were isolated from male (300 gm) Wistar rats (Charles River Laboratories) and maintained as described (Engel, F. B. et al. p38 MAP kinase inhibition enables proliferation of adult mammalian cardiomyocytes. Genes Dev 19, 1175-87 (2005)). Adult cardiomyocytes were stimulated daily for 9 days and labeled with 30 μM BrdU for the terminal 3 days. Cardiomyocytes were stimulated with periostin (500 ng/mL) and FGF (100 ng/mL). Inhibiting antibodies were added at a concentration of 10 μg/mL, cRGD at 10 μM, U0126 at 10 μM, PD98059 at 1 μM, LY294002 at 10 μM, and Wortmannin at 0.1 μM 30 min prior to stimulation. The vehicle used to dissolve factors or chemicals was added to unstimulated samples, which were then processed together with the test samples.
(§2) DNA-synthesis was analyzed by visualization of BrdU uptake and cytokinesis was determined by detection of the cleavage furrow and the midbody with an antibody against aurora B kinase as described (Engel, F. B. et al. p38 MAP kinase inhibition enables proliferation of adult mammalian cardiomyocytes. Genes Dev 19, 1175-87 (2005)). Signals were visualized with secondary antibodies conjugated to Alexa 488, Alexa 546, Alexa 594, and Alexa 647 (Invitrogen). Nuclei were visualized with 4′,6′-diamidino-2-phenylindole (DAPI, Invitrogen). For image acquisition, the value for γ was set at 1 and the lookup table settings were linear.

Experiment [5] relates to primary adult rat ventricular cardiomyocytes. Briefly: Cytokinesis (aurora B kinase) in primary adult rat ventricular cardiomyocytes. It counts as cell-based. The note with it: 9 days stimulation.
Description: as §1, §2

Experiment [6] shares this test system. Kind of experiment: DNA synthesis (BrdU uptake, immunofluorescence) in primary adult rat ventricular cardiomyocytes. Format: cell-based. The text has this: Primary neonatal rat ventricular cardiomyocytes were isolated using the Neomyts kit (Cellutron, Highland Park, N.J.), seeded at a density of 10^5 cells/cm^2 onto gelatin-coated cover slips, stimulated for 3 days, and labeled with BrdU for the terminal 2 days. Primary adult ventricular cardiomyocytes were isolated from male (300 gm) Wistar rats (Charles River Laboratories) and maintained as described (Engel, F. B. et al. p38 MAP kinase inhibition enables proliferation of adult mammalian cardiomyocytes. Genes Dev 19, 1175-87 (2005)). Adult cardiomyocytes were stimulated daily for 9 days and labeled with 30 μM BrdU for the terminal 3 days. Cardiomyocytes were stimulated with periostin (500 ng/mL) and FGF (100 ng/mL). […] The vehicle used to dissolve factors or chemicals was added to unstimulated samples, which were then processed together with the test samples. DNA-synthesis was analyzed by visualization of BrdU uptake and cytokinesis was determined by detection of the cleavage furrow and the midbody with an antibody against aurora B kinase as described (Engel, F. B. et al. p38 MAP kinase inhibition enables proliferation of adult mammalian cardiomyocytes. Genes Dev 19, 1175-87 (2005)). Signals were visualized with secondary antibodies conjugated to Alexa 488, Alexa 546, Alexa 594, and Alexa 647 (Invitrogen). […] For image acquisition, the value for γ was set at 1 and the lookup table settings were linear. Primary adult rat ventricular cardiomyocytes were grown on gridded cover slips (Electron Microscopy Services, Ft. Washington, Pa.) and imaged in phase contrast at 10× magnification. Cardiomyocytes were transduced with an adenovirus leading to nuclear expression of histone2B-GFP (Shi, Q. & King, R. W. Nature 437, 1038-42 (2005)) under control of the chicken troponin T promoter ([…]. Am J Physiol Cell Physiol 286, […]-64 (2004)). Nuclei were visualized at 10× magnification with a mercury-arc lamp dimmed to 1.5% with a neutral density filter. […] Images of BrdU-positive cardiomyocytes were matched with the corresponding images from before stimulation. For quantification, differentiated cardiomyocytes were defined as striated rod-shaped structures with length/width ratio>1.5.

`CNC[C@H](O)c1cccc(O)c1` [phenylephrine, reference compound]: the “transcription of atrial natriuretic factor (ANF)” value in experiment [1] is “induced”. Further, in experiment [2], the “transcription of SERCA2” value is reported as “slightly reduced”; the “transcription of β-MHC, SMA and ANF” value is “increased transcription”. In addition, in experiment [3], the “[3H]leucine uptake (hypertrophy)” value is given as “induced”.
Regarding “FGF: FGF1 provided by R&D Systems; known stimulus of cardiomyocyte DNA synthesis”, the “transcription of atrial natriuretic factor (ANF)” value in experiment [1] was “induced”. The “effect of co-stimulation with periostin on DNA synthesis” value in experiment [4] is on record as “additive effect”. Further, the “cytokinesis, of all differentiated cardiomyocytes” value in experiment [5] turned out to be 0.3±0.1%. For the same compound, the “cardiomyocyte DNA synthesis” value in experiment [6] (9 days stimulation (periostin 500 ng/mL, FGF 100 ng/mL), BrdU terminal 3 days) is 1.3±0.6%. For the same compound, the “effect on periostin-induced cardiomyocyte DNA synthesis when added” value in experiment [6] (FGF 100 ng/ml, SB203580 5 mM or 10 mM as printed) is given as “increased”.

The values above are taken from US8936806B2, “Periostin induces proliferation of cardiomyocytes and promotes cardiac regeneration” (Children's Medical Center Corporation, priority 2007, dated 2015).
